The test system of assay [1] is HER5 cells (mouse fibroblast cells that overexpress human EGFR). Briefly: HER5 cell proliferation stimulation assay (WST-1). Particulars: serum-free, 48 hour proliferation period, FIG. 3. Format: cell-based. On the procedure: Hung (MD Anderson Cancer Center). Stock cultures of HER5 were propagated in D-MEM/F12 medium containing 10% fetal bovine serum, 100 units/ml of penicillin and 100 ug/ml of streptomycin in a water-jacketed incubator at 37° C. in a humidified 5% CO2 atmosphere. For HER5 proliferation assays, the cells were changed into DMEM/F12 without serum for 24 hours. Cells were then trypsinized and suspended at 1E5 cells/ml. […] Fifty microliters of cell suspension (5000 cells) were added to appropriate wells bringing the total volume to 100 ul at the desired concentrations. Plates were incubated for a 48 hour proliferation period. Cell proliferation was determined by addition of 10 ul/well of WST-1 Cell Proliferation Reagent (Roche Applied Sciences, Indianapolis, Ind.) for the last three hours of the proliferation period. WST-1 is a tetrazolium salt that is cleaved to formazan dye by mitochondrial dehydrogenases in viable cells. The amount of formazan was measured at 450 nm using a microplate reader (Dynex Technologies) with MRX Revelation software.

In assay [2] the test system is MCF-7 cells (human breast cancer cell line that express HER2 and HER3). Briefly: MCF-7 cell proliferation stimulation assay (WST-1). Format: cell-based. Conditions: serum-free, 72 hours, FIG. 4. As to the method:
MCF-7 cells were obtained from the American Type Culture Collection (ATCC). Stock cultures of MCF-7 were maintained in Eagle's MEM supplemented with 1% ITS-X (Invitrogen) and 10% fetal bovine serum. For proliferation assays, MCF-7 cells were transferred to serum-free medium (SFM) for 24 hours and then trypsinized and suspended at 1E5 cells/mL in SFM. Fifty microliters of cell suspension (5000 cells) were plated per well in 96 well microtiter plates. Serial dilutions of HER ligands or mutant proteins were prepared at twice the final concentration in SFM and 50 ul was added to wells, bringing the final volume to 100 ul at the desired final concentration. Plates were incubated for 72 hours at 37 C in a humidified 5% CO2 atmosphere. Cell proliferation was determined by addition of 10 ul/well of WST-1 Cell Proliferation Reagent (Roche Applied Sciences, Indianapolis, Ind.) for the last three hours of the proliferation period.
In general terms: Formazan colour is commonly taken as a measure of viable cells.

Take “Epidermal growth factor [EGF, agonistic ligand for EGFR]”: the “stimulation of HER5 cells (proliferation)” value in assay [1] is recorded as “can be stimulated”. The “stimulation of MCF-7 cells (proliferation)” value in assay [2] is on record as “not”.

For the origin of these results see patent publication US7557181B2, “Pan-HER antagonists and methods of use” (Molecular Logix, Inc., priority 2005, dated 2009).
